Experimental data from paper PMC4319826, “Potent Natural Soluble Epoxide Hydrolase Inhibitors from Pentadiplandra brazzeana Baillon: Synthesis, Quantification, and Measurement of Biological Activities In Vitro and In Vivo” (PLoS ONE, 2015).
Values after ≈ are worked out from the molar mass of the structure shown. “Also recorded” adds a separate entry of the source. Where two headings read alike, the source gives them in different places.

Experiments:
recombinant human sEH [1] = target: T1, recombinant human sEH (Homo sapiens, UniProt P34913); test: sEH inhibition by fluorescent assay (CMNPC assay), human; type: biochemical; conditions: for IC50: recombinant human sEH 0.96 nM, [S] = 5 μM, mean ± SD of three measurements
T1 construct: made in house; host or cells: insect High Five cells, recombinant baculovirus
T1 sequence (P34913 1-555): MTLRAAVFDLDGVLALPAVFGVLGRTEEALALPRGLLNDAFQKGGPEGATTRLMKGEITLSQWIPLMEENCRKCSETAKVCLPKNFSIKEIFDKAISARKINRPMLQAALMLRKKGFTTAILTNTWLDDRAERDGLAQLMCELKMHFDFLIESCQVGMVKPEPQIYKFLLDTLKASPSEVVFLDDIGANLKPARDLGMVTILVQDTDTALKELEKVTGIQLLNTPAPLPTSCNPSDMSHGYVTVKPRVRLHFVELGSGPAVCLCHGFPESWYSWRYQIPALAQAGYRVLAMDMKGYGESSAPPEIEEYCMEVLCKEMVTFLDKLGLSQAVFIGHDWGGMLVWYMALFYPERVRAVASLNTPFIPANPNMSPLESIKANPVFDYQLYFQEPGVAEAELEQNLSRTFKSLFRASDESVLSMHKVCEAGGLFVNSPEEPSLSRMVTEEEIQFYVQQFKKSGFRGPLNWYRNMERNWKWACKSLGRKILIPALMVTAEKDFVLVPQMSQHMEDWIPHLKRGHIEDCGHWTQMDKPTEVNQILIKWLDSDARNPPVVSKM
Protocol: (§1) Recombinant human and recombinant rat sEH were produced in insect High Five cells using recombinant baculovirus expression vectors, and purified by affinity chromatography as reported previously. Each enzyme appeared as a single band (0.3 μg loading) with an estimated purity of more than 95% by Coomassie Brilliant Blue staining following SDS-PAGE separation (S1 Fig.). The final recombinant sEH preparations had no esterase or glutathione S-transferase activity which interferes with the CMNPC assay as described below.
(§2) IC50 values were determined as described previously using cyano (2-methoxynaphthalen-6-yl) methyl trans-(3-phenyl-oxyran-2-yl) methyl carbonate (CMNPC) as a fluorescent substrate. Recombinant human or recombinant rat sEH (0.96 nM) was incubated with crude root extract or inhibitors for 5 min in 25 mM bis-Tris/HCl buffer (pH 7.0) containing 0.1 mg/mL of BSA at 30°C prior to substrate introduction ([S] = 5 μM). Activity was measured by determining the appearance of the 6-methoxy-2-naphthaldehyde with an excitation wavelength of 330 nm and an emission wavelength of 465 nm for 10 min.
The inhibitory potency on human sEH was measured using the CMNPC assay as described in the Materials and Methods. Firstly, the inhibition percentage by each fraction (100 times dilution) was measured (Figure S5&S7). Then the inhibitory potency was measured for the fractions showing higher than 50% inhibition and the IC50 was determined. The potency of each of the fractions is presented as a relative potency to the calculated IC50 of the extract based on the concentration of MMU (Relative potency unit=dilution factor at IC50 of each of fraction/dilution factor at calculated IC50 of the extract based on MMU). […] Data in Table S1&S2 show the relative potency of each fraction and the percentage of recovered potency.

recombinant rat sEH = target: T2, recombinant rat sEH (Rattus norvegicus, UniProt P80299); test: sEH inhibition by fluorescent assay (CMNPC assay), rat; type: biochemical; conditions: recombinant rat sEH 0.96 nM, [S] = 5 μM, mean ± SD of three measurements
T2 construct: made in house; host or cells: insect High Five cells, recombinant baculovirus
T2 sequence (P80299 1-554): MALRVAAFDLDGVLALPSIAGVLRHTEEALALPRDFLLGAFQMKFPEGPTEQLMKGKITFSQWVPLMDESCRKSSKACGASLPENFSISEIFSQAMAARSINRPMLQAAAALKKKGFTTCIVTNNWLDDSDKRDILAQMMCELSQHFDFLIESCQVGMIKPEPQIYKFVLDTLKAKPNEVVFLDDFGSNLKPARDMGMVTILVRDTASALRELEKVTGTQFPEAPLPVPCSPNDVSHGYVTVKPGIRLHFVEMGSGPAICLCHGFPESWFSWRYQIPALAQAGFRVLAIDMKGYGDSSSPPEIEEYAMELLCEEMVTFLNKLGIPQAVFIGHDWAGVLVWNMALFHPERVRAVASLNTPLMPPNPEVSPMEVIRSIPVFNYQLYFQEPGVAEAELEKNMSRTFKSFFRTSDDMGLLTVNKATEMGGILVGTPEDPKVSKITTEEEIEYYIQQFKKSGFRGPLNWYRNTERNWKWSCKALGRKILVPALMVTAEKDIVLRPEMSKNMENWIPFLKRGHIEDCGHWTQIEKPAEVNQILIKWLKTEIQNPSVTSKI
Protocol: as §1, §2

recombinant human sEH [2] = target: T1, recombinant human sEH; test: sEH inhibition by radioactivity-based assay (t-DPPO assay), human; type: biochemical; conditions: for IC50: t-DPPO 50 μM, mean ± SD of three measurements
Protocol: as §1
IC50 values were determined as described previously with slight modifications, using racemic [^3H] trans-diphenylpropene oxide (t-DPPO). Purified recombinant human sEH was diluted in 100 mM sodium phosphate buffer (pH 7.4) containing 0.1 mg/ml BSA, and was incubated in triplicate with inhibitors for 5 min at 30°C prior to the introduction of the radiolabeled substrate (t-DPPO: 50 μM; ∼10,000 cpm/assay). The mixture was incubated at 30°C for 10 min and the reaction was quenched by the addition of 60 μl of methanol. The remaining substrate was extracted by vigorous mixing with 200 μl of isooctane. The radioactivity of the aqueous phase was measured using a liquid scintillation counter (Perkin Elmer Tri-Carb 2810TR, Shelton, CT). Epoxide hydrolase activity was determined as a percentage of the radioactivity corresponding to the diol in the aqueous phase relative to the control.

[3] = tested on: carrageenan induced inflammatory pain; parameters: method as in Rose et al., (2010); conditions: rat, ref Rose et al., (2010), cited from earlier work
sEH = conditions: cited from earlier work
human sEH = conditions: cited from earlier work
[4] = tested on: carrageenan induced inflammatory pain; test: Nociceptive assay, carrageenan-induced inflammatory pain model (von Frey mechanical withdrawal threshold); type: in vivo; conditions: rat
Protocol: Male Sprague-Dawley rats weighing 235–280 g were obtained from Charles River Laboratories and maintained in the UC Davis animal housing facility with ad libitum water and food on a 12 h/12 h light-dark cycle. Behavioral nociceptive testing was conducted by assessing mechanical withdrawal threshold using an electronic von Frey anesthesiometer apparatus (IITC, Woodland Hills, CA). […] At least three measurements were taken at 1–2 min inter-stimulus intervals. Data were normalized to percentage values using the formula (mechanical withdrawal threshold (g)) ×100/ (mechanical withdrawal threshold (g) of naïve animals). The analgesic effect of MMU was tested using the intraplantar carrageenan elicited local inflammatory pain model. […] Subsequently, the ability of these treatments to reduce the carrageenan-induced inflammatory pain was monitored over the course of 2.5 h.

[5] = Solubility in sodium phosphate buffer; type: physicochemical; conditions: sodium phosphate buffer 0.1 M pH 7.4, 25°C, mean±SD
Protocol: An excess amount of MMU was added to a vial containing sodium phosphate buffer, 0.1 M pH 7.4 (0.25 mL), and the MMU suspension was equilibrated during 1 h of sonication and 48 h of shaking at 25°C, followed by centrifugation. The amount of MMU in the supernatant was analyzed by LC—MS/MS. The result is presented as mean ± SD of triplicate measurement.

recombinant human sEH [6] = target: T1, recombinant human sEH; test: Enzyme kinetics (Dixon method, t-DPPO substrate), dissociation constant; type: biochemical
Protocol: Dissociation constants were determined following the method described by Dixon for competitive tight binding inhibitors, using t-DPPO as a substrate. Inhibitor MMU at concentrations between 0 and 1000 nM was incubated in triplicate for 5 min in 100 mM sodium phosphate buffer (pH 7.4) at 30°C with 100 μl of the enzyme (2 nM of recombinant human sEH). Substrate (4.0 ≤ [S] final ≤ 30 μM) was then added. Velocity was measured as described previously. For each substrate concentration, the plots of the velocity as a function of the inhibitor concentration allow the determination of an apparent inhibition constant (Kiapp). The plot of the Kiapp values as a function of the substrate concentration allows the determination of Ki when [S] = 0. Kiapp was measured in at least 3 separate assays. Results are presented as average ± SE.

With `COc1ccc(CNC(=O)NCc2ccccc2)cc1` [BMU, 1-Benzyl-3-(4-methoxybenzyl) urea] the IC50 (recombinant human sEH [1]) was 400 ± 50 nM, the “inhibitory activity lower than that of MMU” value (recombinant human sEH [1]; with both CMNPC and t-DPPO assays) was “about 4 fold” and the IC50 (recombinant rat sEH) was 44 ± 4.2 nM. The IC50 (recombinant human sEH [2]) was 10200 ± 2600 nM.

For `CN1CC[C@]23c4c5ccc(O)c4O[C@H]2[C@@H](O)C=C[C@H]3[C@H]1C5` [morphine], the “reduction of carrageenan-induced inflammatory pain” value (from here on “reduction”) ([3]; 10 μg/paw intraplantar) is listed as “significantly reduced carrageenan induced inflammatory pain; also recorded: significantly reduced pain levels”.

For `C=CCc1ccc(O)c(-c2ccc(O)c(CC=C)c2)c1` [honokiol, reference compound], the IC50 (sEH) is listed as 3400 nM and the IC50 (recombinant human sEH [2]) is listed as 20300 ± 1700 nM.

`O=C(NCc1ccccc1)NCc1ccccc1` [BBU, 1,3-Dibenzylurea] gave an IC50 (recombinant human sEH [1]) of 1900 ± 300 nM, an IC50 (recombinant rat sEH) of 100 ± 6 nM and an IC50 (recombinant human sEH [2]) of 48300 ± 7000 nM.

In the case of `O=C(Nc1ccc(OC(F)(F)F)cc1)NC1CCN(C(=O)C2CC2)CC1` [TPCU, 1-(1-(Cyclopropanecarbonyl)piperidin-4-yl)-3-(4-(trifluoromethoxy)phenyl) urea], the “reduction” value ([3]; 10 ng/paw intraplantar) is given as “significantly reduced carrageenan induced inflammatory pain; also recorded: significantly reduced pain levels” and the IC50 (human sEH) is given as […].

With `COc1ccc(CNC(=O)NCc2ccc(OC)cc2)cc1` [MMU, 1,3-Bis (4-methoxybenzyl) urea] the “reduction” value ([4]; 10 μg/paw intraplantar, 4 h after carrageenan, monitored 2.5 h) was “effectively reduced inflammatory pain; also recorded: significantly reduced carrageenan induced inflammatory pain; also recorded: significantly reduced pain levels; also recorded: showed local analgesic effects”, the “duration of efficacy compared to morphine” value ([4]; MMU 10 μg/paw vs morphine 10 μg/paw, Tukey p<0.05) was “longer duration of efficacy compared to morphine” and the solubility at 48 h [5] was 10.6 ± 2.1 µM (≈ 3.18 µg/mL). It also gave an IC50 (recombinant human sEH [1]) of 92 ± 14 nM, an IC50 (recombinant rat sEH) of 35 ± 5 nM and an IC50 (recombinant human sEH [2]) of 2600 ± 400 nM. The “potency relative to honokiol (more potent)” value (recombinant human sEH [2]; t-DPPO assay) was “about 8 fold”, the Ki (recombinant human sEH [6]) was 54 nM and the “potency higher than APAU (Ki based)” value (recombinant human sEH [6]) was “approximately 2 fold”. For the same molecule, the “potency lower than t-AUCB (Ki based)” value (recombinant human sEH [6]) was “approximately 40 fold”.

In the case of `CC(=O)O[C@H]1CC[C@]2(C)[C@H]3CC=C4[C@@H]5CC(C)(C)CC[C@]5(C)CC[C@@]4(C)[C@]3(C)CC[C@H]2C1(C)C` [β-amyrin acetate], the IC50 (sEH) is given as 570 nM.
